In the supplement of paper PMC7108870:

Key:
[1] = system: HEK293sieSTAT3(Y640F); experiment: drug sensitivity score (DSS), cytotoxicity CellTox Green (DSS (dimensionless)); higher = more cytotoxic; extreme values may be limits of the assay; settings: 72 h; STAT3 variant: Y640F (constitutively active)
Method in brief: (§1)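 In 384-well plates with acoustically pre-plated compounds (5 concentrations, 10-fold dilutions), 20 μl of HEK293 cells at 100,000 cells/ml were added; the cells overexpressed wild-type or mutant STAT3 and carried a STAT3-dependent luciferase reporter. Incubation lasted 72 hours at 37°C and 5% CO2 before sequential CellTox Green (485/520 nm) and CellTiter-Glo reads on a PHERAstar FS. After normalisation to negative and positive control wells, Breeze was used to derive a drug sensitivity score from the dose-response curve area.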

[2] = system: HEK293sieSTAT3(wt); experiment: as above; settings: 72 h; STAT3 variant: wild type
Method in brief: as §1

[3] = system: HEK293sieSTAT3(Y640F); experiment: drug sensitivity score (DSS), viability CellTiter-Glo (DSS (dimensionless)); higher = more growth inhibition; extreme values may be limits of the assay; settings: 72 h; STAT3 variant: Y640F (constitutively active)
Method in brief: as §1

[4] = system: HEK293sieSTAT3(wt); experiment: as above; settings: 72 h; STAT3 variant: wild type
Method in brief: as §1

| SMILES | drug sensitivity score [1] | drug sensitivity score [2] | drug sensitivity score [3] | drug sensitivity score [4] |
| --- | --- | --- | --- | --- |
| O=C(/C=C/c1cccc(S(=O)(=O)Nc2ccccc2)c1)NO [Belinostat] (top concentration tested 10000 nM) | 8.83 | 8.71 | 16.9 | 13.1 |
| Cn1c(CCCC(=O)O)nc2cc(N(CCCl)CCCl)ccc21 [Bendamustine] (top concentration tested 10000 nM) | 0 | 0 | 0.53 | 3.94 |
| N#CC(c1ccnc(OCc2ccc(CN3CCOCC3)cc2)n1)c1nc2ccccc2s1 (stereo not drawn) [Bentamapimod] (top concentration tested 10000 nM) | 0.96 | 0 | 5.3 | 8.85 |
| C=C(c1ccc(C(=O)O)cc1)c1cc2c(cc1C)C(C)(C)CCC2(C)C [Bexarotene] (top concentration tested 10000 nM) | 0 | 0 | 2 | 3.75 |
| CC(O)(CS(=O)(=O)c1ccc(F)cc1)C(=O)Nc1ccc(C#N)c(C(F)(F)F)c1 (stereo not drawn) [Bicalutamide] (top concentration tested 10000 nM) | 0 | 0 | 3.98 | 4.54 |
| CCNC(=O)CCC/C=C\C[C@@H]1[C@@H](/C=C/[C@@H](O)CCc2ccccc2)[C@H](O)C[C@@H]1O [Bimatoprost] (top concentration tested 5500 nM) | 0 | 0 | 0 | 0 |
| Cn1cnc2c(F)c(Nc3ccc(Br)cc3F)c(C(=O)NOCCO)cc21 [Binimetinib] (top concentration tested 1000 nM) | 0 | 0 | 1.87 | 0.52 |
| CC[C@H](NC(=O)[C@H](C)NC)C(=O)N1C[C@@H](O)C[C@H]1Cc1c(-c2[nH]c3cc(F)ccc3c2C[C@@H]2C[C@H](O)CN2C(=O)[C@H](CC)NC(=O)[C@H](C)NC)[nH]c2cc(F)ccc12 [Birinapant] (top concentration tested 1000 nM) | 19.5 | 30.4 | 7.4 | 15.6 |
| Cc1c(N)nc([C@H](CC(N)=O)NC[C@H](N)C(N)=O)nc1C(=O)N[C@H](C(=O)N[C@H](C)[C@@H](O)[C@H](C)C(=O)N[C@H](C(=O)NCCc1nc(-c2nc(C(=O)NCCC[S+](C)C)cs2)cs1)[C@@H](C)O)[C@@H](OC1OC(CO)C(O)C(O)C1OC1OC(CO)C(O)C(OC(N)=O)C1O)c1cnc[nH]1 (stereo partly drawn) [Bleomycin] (top concentration tested 10000 nM) | 4.25 | 5.92 | 20.1 | 18.8 |
| CC(C)C[C@H](NC(=O)[C@H](Cc1ccccc1)NC(=O)c1cnccn1)B(O)O [Bortezomib] (top concentration tested 1000 nM) | 30.6 | 31.7 | 29.8 | 32.5 |
| COc1cc(Nc2c(C#N)cnc3cc(OCCCN4CCN(C)CC4)c(OC)cc23)c(Cl)cc1Cl [Bosutinib] (top concentration tested 10000 nM) | 7.59 | 7.02 | 7.76 | 8.54 |
| COc1cc(N2CCC(N3CCN(C)CC3)CC2)ccc1Nc1ncc(Cl)c(Nc2ccccc2P(C)(C)=O)n1 [Brigatinib] (top concentration tested 2500 nM) | 0.69 | 1.71 | 7.58 | 8.02 |
| Cc1cc2c(F)c(Oc3ncnn4cc(OC[C@@H](C)O)c(C)c34)ccc2[nH]1 [Brivanib] (top concentration tested 1000 nM) | 0 | 0 | 0.26 | 0 |
| CCC/C=C/C=C/C(=O)O[C@H]1/C(=C/C(=O)OC)C[C@H]2C[C@H]([C@@H](C)O)OC(=O)C[C@H](O)C[C@@H]3C[C@H](OC(C)=O)C(C)(C)[C@](O)(C[C@@H]4C/C(=C/C(=O)OC)C[C@H](/C=C/C(C)(C)[C@]1(O)O2)O4)O3 [Bryostatin 1] (top concentration tested 100 nM) | 0.65 | 0.86 | 0 | 0.13 |
| Nc1cc(C(F)(F)F)c(-c2cc(N3CCOCC3)nc(N3CCOCC3)n2)cn1 [Buparlisib] (top concentration tested 10000 nM) | 0.73 | 4 | 10.5 | 12.3 |
| CS(=O)(=O)OCCCCOS(C)(=O)=O [Busulfan] (top concentration tested 100000 nM) | 0 | 1.26 | 0.42 | 4.87 |
| O=C(O)CCCCC(CCSCc1ccccc1)SCc1ccccc1 (stereo not drawn) [CPI-613] (top concentration tested 10000 nM) | 0 | 0.8 | 0.32 | 2.62 |
| C#Cc1cccc(Nc2ncnc3cc(OC)c(OCCCCCCC(=O)NO)cc23)c1 [CUDC-101] (top concentration tested 10000 nM) | 7.69 | 3.02 | 16.1 | 9.59 |
| CN(C)c1cc2c(cc1Sc1nc3c(N)nccc3n1CCNCC(C)(C)C)OCO2 [CUDC-305] (top concentration tested 10000 nM) | 7.26 | 17.6 | 20 | 24.6 |
| COc1ccc(-c2nc(N3CCOCC3)c3sc(CN(C)c4ncc(C(=O)NO)cn4)cc3n2)cn1 [CUDC-907] (top concentration tested 10000 nM) | 19.1 | 30.6 | 36.8 | 37.1 |
| Cc1nc(N)sc1-c1ccnc(Nc2ccc(N3CCOCC3)cc2)n1 [CYC-116] (top concentration tested 10000 nM) | 0 | 0.48 | 8.51 | 9.72 |

| SMILES | drug sensitivity score [1] | drug sensitivity score [2] | drug sensitivity score [3] | drug sensitivity score [4] |
| --- | --- | --- | --- | --- |
| CO[C@H]1C(=O)[C@]2(C)[C@@H](OC)C[C@H]3OC[C@@]3(OC(C)=O)[C@H]2[C@H](OC(=O)c2ccccc2)[C@]2(O)C[C@H](OC(=O)[C@H](O)[C@@H](NC(=O)OC(C)(C)C)c3ccccc3)C(C)=C1C2(C)C [Cabazitaxel] (top concentration tested 1000 nM) | 4.14 | 16.3 | 26.2 | 28.6 |
| COc1cc2nccc(Oc3ccc(NC(=O)C4(C(=O)Nc5ccc(F)cc5)CC4)cc3)c2cc1OC [Cabozantinib] (top concentration tested 1000 nM) | 0 | 0 | 0.13 | 1.9 |
| CC[C@@]1(O)C(=O)OCc2c1cc1n(c2=O)Cc2cc3ccccc3nc2-1 [Camptothecin] (top concentration tested 5000 nM) | 9.78 | 15.8 | 28.5 | 29.1 |
| C=CC(=O)Nc1cc2c(Nc3ccc(F)c(Cl)c3)ncnc2cc1OCCCN1CCOCC1 [Canertinib] (top concentration tested 10000 nM) | 6.41 | 7.96 | 6.3 | 8.37 |
| CCCCCOC(=O)Nc1nc(=O)n([C@@H]2O[C@H](C)[C@@H](O)[C@H]2O)cc1F [Capecitabine] (top concentration tested 10000 nM) | 0 | 0 | 0 | 0 |
| O=C(O)C1(C(=O)O)CCC1.[NH2-].[NH2-].[Pt+2] [Carboplatin] (top concentration tested 100000 nM) | 1.37 | 4.89 | 9.56 | 10.6 |
| CC(C)C[C@H](NC(=O)[C@H](CCc1ccccc1)NC(=O)CN1CCOCC1)C(=O)N[C@@H](Cc1ccccc1)C(=O)N[C@@H](CC(C)C)C(=O)[C@@]1(C)CO1 [Carfilzomib] (top concentration tested 1000 nM) | 26.5 | 31.9 | 31.2 | 32.8 |
| O=NN(CCCl)C(=O)NCCCl [Carmustine] (top concentration tested 10000 nM) | 0 | 0 | 3.24 | 1.45 |
| COc1cc2c(Oc3ccc4[nH]c(C)cc4c3F)ncnc2cc1OCCCN1CCCC1 [Cediranib] (top concentration tested 1000 nM) | 0 | 0.26 | 1.03 | 1.46 |
| Cc1ccc(-c2cc(C(F)(F)F)nn2-c2ccc(S(N)(=O)=O)cc2)cc1 [Celecoxib] (top concentration tested 10000 nM) | 0 | 0.02 | 0.58 | 4.14 |
| CCS(=O)(=O)N1CCN(c2ccc(Nc3ncc(C(N)=O)c(NC4CC4)n3)cc2)CC1 [Cerdulatinib] (top concentration tested 10000 nM) | 0.63 | 7.28 | 6.32 | 9.09 |
| Cc1cc(Nc2ncc(Cl)c(Nc3ccccc3S(=O)(=O)C(C)C)n2)c(OC(C)C)cc1C1CCNCC1 [Ceritinib] (top concentration tested 2500 nM) | 0 | 0.89 | 0.86 | 1.05 |
| O=C(O)CCCc1ccc(N(CCCl)CCCl)cc1 [Chlorambucil] (top concentration tested 10000 nM) | 0 | 0 | 1.45 | 0.99 |
| CCN(CC)CCCC(C)Nc1ccnc2cc(Cl)ccc12 (stereo not drawn) [Chloroquine] (top concentration tested 100000 nM) | 8.17 | 15.8 | 11 | 13 |
| CC(C)[C@H]1C(=O)N[C@@H](CCCNC(=N)N)C(=O)NCC(=O)N[C@@H](CC(=O)O)C(=O)N[C@H](Cc2ccccc2)C(=O)N1C [Cilengitide] (top concentration tested 10000 nM) | 0 | 0 | 0 | 0 |
| N.N.[Cl][Pt][Cl] [Cisplatin] (top concentration tested 100000 nM) | 5.83 | 6.89 | 19.6 | 18.9 |
| Nc1nc(Cl)nc2c1ncn2[C@H]1C[C@H](O)[C@@H](CO)O1 [Cladribine] (top concentration tested 1000 nM) | 0 | 0.33 | 1.45 | 6.32 |
| Nc1nc(Cl)nc2c1ncn2[C@@H]1O[C@H](CO)[C@@H](O)[C@@H]1F [Clofarabine] (top concentration tested 10000 nM) | 3.51 | 7.13 | 18.6 | 20.3 |
| CCN(CC)CCOc1ccc(C(=C(Cl)c2ccccc2)c2ccccc2)cc1 [Clomifene] (top concentration tested 10000 nM) | 6.99 | 7.9 | 5.14 | 7.15 |
| O=C(c1ccc(F)c(F)c1Nc1ccc(I)cc1F)N1CC(O)([C@@H]2CCCCN2)C1 [Cobimetinib] (top concentration tested 1000 nM) | 0 | 0 | 3.13 | 3.78 |
| COc1c(OCCCN2CCOCC2)ccc2c1N=C(NC(=O)c1cnc(N)nc1)N1CCN=C21 [Copanlisib] (top concentration tested 1000 nM) | 0 | 0.34 | 15.5 | 18.3 |
